Measured values taken from patent EP2218450A1, “Memantine for treating bipolar mood disorders resistant to conventional treatments” (Serra, Gino, priority 2009, dated 2010).
Read-outs that look alike come from different tables or passages of the source.

What was measured:
[1] = tested on: OCD; conditions: cited from earlier work
[2] = tested on: catatonic schizophrenia; conditions: cited from earlier work
[3] = tested on: NMDA glutamate receptor; conditions: compared to more powerful NMDA antagonists such as phencyclidine, ketamine and MK-801; cited from earlier work
[4] = tested on: addictions; conditions: cited from earlier work
[5] = tested on: binge eating disorder; conditions: five obese patients affected by binge eating disorder; cited from earlier work
[6] = tested on: depressive symptoms; conditions: cited from earlier work
[7] = tested on: Pervasive development disorders; conditions: five open clinical studies and one case report; cited from earlier work
[8] = tested on: bipolar patients
Description: We report, in order to exemplify, the most clinically significant cases in bipolar patients (DSM IV-TR) resistant to hitherto available treatments.
Memantine was administered at 10-30 mg/day (according to the doses used for Alzheimer Disease and in many off-label uses of the drug in other psychiatric disorders) to 18 bipolar patients (mean age 42, range 24-61, SD 11): 13 BP type 1 (11 women and 2 men) and 5 BP type 2 (3 women and 2 men).
The Memantine treatment was added to the ongoing treatment which was left unmodified. The severity of the patients' condition before Memantine, and the change after Memantine addition was evaluated on the GCI-BP Overall Bipolar Illness scale: • GCI-BP Overall Bipolar Illness: Severity • 1. Normal, not ill; • 2. Minimally ill; • 3. Mildly ill; • 4. Moderately ill; • 5. Markedly ill; • 6. Severely ill; • 7. Very severely ill.
All patients have been followed-up for 24 weeks. […] Very much improved • 2. Much improved • 3. […] No change • 5. Minimally worse • 6. Much worse • 7. Very much worse

[9] = tested on: dopamine receptor sensitization; conditions: cited from earlier work
[10] = at 24 weeks, Memantine 10-30 mg/day added to ongoing treatment, 18 bipolar patients

CC12CC3CC(C)(C1)CC(N)(C3)C2 [Memantine]
patients with symptomatic improvements ([1]; case reports, three patients with OCD, 5-15 mg a day): Two | patients with symptomatic improvement ([1]; open-label study, out of 14, Memantine 20 mg in combination with SSRIs): 6 patients | effect in schizophrenia, controlled clinical trial ([2]; in combination with an atypical antipsychotic): No improvement was observed | effect on symptoms of catatonic schizophrenia ([2]; three case reports, 10 mg twice a day in two patients, 10 mg per day in the other): improvement in the symptoms | affinity for the receptor [3]: low affinity | benefit in nicotine or cocaine addiction [4]: no benefit has been detected | symptoms of heroin withdrawal [4]: effective in reducing the symptoms of heroin withdrawal | symptoms of alcohol withdrawal syndrome ([4]; one study (41)): reduction of the symptoms of alcohol withdrawal syndrome | craving for alcohol ([4]; two studies (39, 40)): reduction in craving for alcohol | alcohol consumption ([4]; two studies (42, 43), in one the effect did not significantly differ from placebo): reduction in alcohol consumption | effect on appetite, binge eating and body weight [5]: diminished appetite, the disappearance of binge eating (in two out of five patients) and a reduction of body weight | effect on depressive symptoms ([6]; patient, 10 mg/die): improvement in the depressive symptoms | effect on depressive symptoms ([6]; person, 20 mg/die in combination with conventional antidepressant treatment, within a week): improvement in various depressive symptoms | effect on symptoms [7]: symptomatic improvement | patients very much or much improved ([8]; after 24 weeks of Memantine treatment, 18 bipolar patients): 72.2% | rapid cyclers that reached stability ([8]; among the ten rapid cyclers, 24 weeks): six | patients remained unchanged (score 4), GCI-BP overall Bipolar Illness: Change from preceding phase [8, 10]: 3 patients | patients scored 1 (very much improved), GCI-BP overall Bipolar Illness: Change from preceding phase [8, 10]: 9 patients | patients scored 2 (much improved), GCI-BP overall Bipolar Illness: Change from preceding phase [8, 10]: 4 patients | patients scored 3 (minimally improved), GCI-BP overall Bipolar Illness: Change from preceding phase [8, 10]: 2 patients | mean time to improvement ([8]; range 6-132, SD 48,4, Memantine 10-30 mg/day): 55 days

C[C@]12N[C@H](Cc3ccccc31)c1ccccc12 [MK.801]
prevention of dopamine receptor sensitization induced by electroconvulsive shock [9]: completely prevents | prevention of dopamine receptor sensitization induced by imipramine [9]: completely prevents

O=C(O)C1CN(CCCP(=O)(O)O)CCN1 (stereo not drawn) [CPP]
prevention of dopamine D2 receptors sensitization induced by imipramine [9]: fails to pevent
